Laboratory results from publication PMC6934184, “Selective DNA-PKcs inhibition extends the therapeutic index of localized radiotherapy and chemotherapy” (The Journal of Clinical Investigation, 2019).

Target: T1, STK17A (DRAK1) (Homo sapiens, UniProt Q9UEE5)
T1 construct: purchased Thermo Fisher Scientific (Life Technologies) SelectScreen
Assay: SelectScreen LanthaScreen
Assay type: binding
Settings: read-out: % displacement
Outline: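 NU5455 was profiled across the SelectScreen Broad panel of kinase activity and binding assays. Z'LYTE reactions such as CSF1R ran at apparent Km ATP, while the Adapta CAMK1 assay used ATP listed as 10. Values are given as percent.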

T1 sequence (Q9UEE5 whole entry): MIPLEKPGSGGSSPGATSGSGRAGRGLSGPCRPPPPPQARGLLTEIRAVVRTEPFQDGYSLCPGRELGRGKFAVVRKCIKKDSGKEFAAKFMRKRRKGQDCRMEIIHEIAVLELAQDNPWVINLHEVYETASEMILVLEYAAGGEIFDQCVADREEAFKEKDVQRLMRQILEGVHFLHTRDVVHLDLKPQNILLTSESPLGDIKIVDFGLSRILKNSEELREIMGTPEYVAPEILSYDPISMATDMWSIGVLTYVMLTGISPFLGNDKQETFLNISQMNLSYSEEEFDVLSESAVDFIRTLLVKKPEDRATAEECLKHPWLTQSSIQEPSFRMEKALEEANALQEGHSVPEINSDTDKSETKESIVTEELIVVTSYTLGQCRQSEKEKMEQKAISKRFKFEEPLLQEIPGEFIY

For CN(C(=O)CN1CCOCC1)c1ccc2sc3c(-c4cccc5c(=O)cc(N6CC7CCC(C6)O7)oc45)cccc3c2c1 [NU5455], the inhibition at 1 µM was -6.6%.
